Measurements from US20250179057A1, “MEK IMMUNE ONCOLOGY INHIBITORS AND THERAPEUTIC USES THEREOF” (Immuneering Corporation, priority 2022, published 2025).
Where a name gives a salt, the structure may show the parent alone.

What was measured:
CYP2C9 = CYP2C9 (Homo sapiens, UniProt P11712); assay: CYP450 panel inhibition in human liver microsomes, 2C9 (diclofenac); settings: for inhibition at 30 min, 10 µM: human, microsomes, pH 7.4; for CYP-2C9 (Diclofenac) mean percentage CYP inhibition: human liver microsomes, 10 μM, substrate diclofenac
Text: The quenched samples were stored refrigerated.

[1] = Plasma stability, rat plasma (Wistar Han / wistar hannover; Table 5 head SD Rat); type: in vitro ADME; settings: wistar hannover rat plasma, 2 μM, anti-coagulant K2-EDTA; for half-life at 2 μM: pH 7.4, read-out: T1/2; for % Remaining at T120: 120 min
Description: (§1) Individual stock solutions of propantheline and lovastatin were prepared at 10 mM in DMSO and were further diluted to 2 mM with DMSO.
(§2) Frozen matrices (Balb/c mouse, Wistar Han rat, Beagle dog, and human plasma containing K2EDTA as anti-coagulant) were thawed and centrifuged at 3100 rpm for 10 minutes at 4° C. to remove particulates. The lipid layer was then removed, and the supernatant was transferred to a new tube without disturbing the pellet. After the matrices were incubated at 37° C. for at least 10 minutes, the pH of each matrix was adjusted to pH 7.4, using 10% phosphoric acid or 1N sodium hydroxide as necessary. Test and control article stock solutions were spiked (2 μL) into matrix (1.998 mL) and mixed to final assay concentration of […]. Duplicate 30-μL aliquots of spiked plasma were transferred to matrix tubes in 96-well plate immediately after spiking for timepoints of 0, 30, 60, 120, 240, and 360 minutes. These tubes were then incubated at 37° C. with shaking and at each timepoint, the corresponding tubes containing samples were quenched with 180 μL of cold acetonitrile containing the internal standards. The quenched samples were vortex-mixed briefly and stored refrigerated. After the final time point (360 minutes), the plates with all quenched samples were vortex-mixed for 10 minutes and then centrifuged at 3100 rpm for 10 minutes at 4° C. to sediment the precipitated protein. The supernatant (50 μL) was transferred to a clean 96-well plate and diluted with 100 μL of water. The plates were stored refrigerated until analysis.
(§3) Data Analysis: Peak area ratios for IS-normalized test article and control article counts were used to calculate the percent remaining relative to the time zero (T0) value. As appropriate, results were plotted and further analyzed to calculate half-life (T1/2) values.
(§4) Mean peak area ratios were used to calculate the % remaining relative to the T0 value:
(§5) In this study, human, cynomolgus monkey, beagle dog, wistar hannover rat, and balb/c plasma stability was determined. Table 28 describes the results of the human plasma stability at 2 μM concentration and anti-coagulant K2-EDTA from 10 to 120 min. Table 29 describes the results of the cynomolgus monkey plasma stability at 2 μM concentration and anti-coagulant K2-EDTA. Table 30 describes the results of the beagle dog plasma stability at 2 μM concentration and anti-coagulant K2-EDTA. Table 31 describes the results of the wistar hannover rat plasma stability at 2 μM concentration and anti-coagulant K2-EDTA. Table 32 describes the results of the balb/c plasma stability at 2 μM concentration and anti-coagulant K2-EDTA.

Caco-2 cells = assay: Caco-2 bidirectional permeability (absorption & efflux); settings: Example 47
[2] = Plasma stability, beagle dog plasma (K2EDTA); type: in vitro ADME; settings: beagle dog plasma, 2 μM, anti-coagulant K2-EDTA; for % Remaining at T120: 120 min; for half-life at 2 μM: pH 7.4, read-out: T1/2
Description: as §1, §2, §3, §4, §5

[3] = Plasma stability, mouse plasma (Balb/c; Table 5 head CD-1 Mouse); type: in vitro ADME; settings: balb/c plasma, 2 μM, anti-coagulant K2-EDTA; for % Remaining at T120: 120 min; for half-life at 2 μM: mouse, pH 7.4, read-out: T1/2
Description: as §1, §2, §3, §4, §5

[4] = test system: cynomolgus monkey hepatocytes; assay: Hepatocyte stability, cynomolgus monkey; type: in vitro ADME; settings: 2 μM, 0.5 million cells/ml
Description: In this study, human, cynomolgus monkey, beagle dog, wistar hannover rat, and balb/c mouse hepatocyle stability was determined.

Chain of CYP2C9 (P11712 whole entry): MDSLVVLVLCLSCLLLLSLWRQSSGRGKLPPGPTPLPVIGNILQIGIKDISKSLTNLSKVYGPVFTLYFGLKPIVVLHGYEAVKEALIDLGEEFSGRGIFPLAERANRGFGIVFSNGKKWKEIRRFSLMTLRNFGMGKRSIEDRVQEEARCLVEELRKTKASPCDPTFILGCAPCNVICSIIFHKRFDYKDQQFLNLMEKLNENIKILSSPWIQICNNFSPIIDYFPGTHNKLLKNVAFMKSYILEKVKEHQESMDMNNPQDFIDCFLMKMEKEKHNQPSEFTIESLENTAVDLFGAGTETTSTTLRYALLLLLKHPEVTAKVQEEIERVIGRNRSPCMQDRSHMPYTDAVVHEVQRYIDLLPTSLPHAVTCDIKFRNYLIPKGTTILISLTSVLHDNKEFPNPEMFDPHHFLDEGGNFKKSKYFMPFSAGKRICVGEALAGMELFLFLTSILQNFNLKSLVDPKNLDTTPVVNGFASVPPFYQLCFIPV

Row | SMILES | inhibition at 30 min, 10 µM (CYP2C9) | half-life at 2 μM [1] | % Remaining at T120 [1] | A − B Permeability Ranking (Caco-2 cells) | % Remaining at T120 [2] | half-life at 2 μM [2] | % Remaining at T120 [3] | half-life at 2 μM [3] | % Remaining At T120 [4] | CYP-2C9 (Diclofenac) mean percentage CYP inhibition (CYP2C9) | T1/2 [1] | Mean Efflux Ratio (Caco-2 cells) | Mean Papp A − B (10^−6 cm/s) (Caco-2 cells) | Mean Papp B − A (10^−6 cm/s) (Caco-2 cells) | T1/2 [2] | T1/2 [3] | CLint (L/hr/kg) [4] | CLint (mL/min/kg) [4] | T1/2 [4]
1 | CNS(=O)(=O)Nc1cccc(Cc2c(CN(C)C)c3ccc(OC(=O)N(C)C)cc3oc2=O)c1Cl [Compound 274, 3-(2-chloro-3-((N-methylsulfamoyl)amino)benzyl)-4-((dimethylamino)methyl)-2-oxo-2H-chromen-7-yl dimethylcarbamate] | 17.1% | 42.3 h | 97.7% | Higher | 100.5% | > 2 h | 92.7% | 126 h | 24.5% |  |  |  |  |  |  |  |  |  | 
2 | CCN(C)Cc1c(Cc2cccc(NS(=O)(=O)NC)c2Cl)c(=O)oc2cc(OC(=O)N(C)C)ccc12 [Compound 245, 3-(2-chloro-3-((N-methylsulfamoyl)amino)benzyl)-4-((ethyl(methyl)amino)methyl)-2-oxo-2H-chromen-7-yl dimethylcarbamate] | 25.8% | 32.2 h | 96.6% | Higher | 104.1% | > 2 h | 81.9% | 7.98 h | 3.3% |  |  |  |  |  |  |  |  |  | 
3 | CNS(=O)(=O)Nc1cccc(Cc2c(CN3CCNCC3)c3cc(Cl)c(OC(=O)N(C)C)cc3oc2=O)c1Cl [Compound 256, 6-chloro-3-(2-chloro-3-((N-methylsulfamoyl)amino)benzyl)-2-oxo-4-(piperazin-1-ylmethyl)-2H-chromen-7-yl dimethylcarbamate hydrochloride] | 36.5% | 179 h | 97.2% | Higher | 99.4% | > 2 h | 86.8% | 9.77 h | 53.9% |  |  |  |  |  |  |  |  |  | 
4 | CNS(=O)(=O)Nc1cccc(Cc2c(CN(C)C)c3cc(F)c(OC(=O)N(C)C)cc3oc2=O)c1F [Compound 25] |  |  | 95.5% | Higher | 90.1% |  | 99.9% |  | 80.4% | 28.0% | 55.43 h | 3.82 | 4.39 10^−6 cm/s | 16.7 10^−6 cm/s | 9.88 h | >2 h | 0.886 L/h/kg | 14.8 mL/min/kg | 6.33 h
5 | CNS(=O)(=O)Nc1cccc(Cc2c(CN(C)C)c3ccc(OC(=O)N(C)C)cc3oc2=O)c1F [Compound 9] |  |  | 93.4% | Higher | 100.5% |  | 86.0% |  | 44.3% | 13.4% | 19.67 h | 1.32 | 16.4 10^−6 cm/s | 21.7 10^−6 cm/s | >2 h | 8.78 h | 3.30 L/h/kg | 54.9 mL/min/kg | 1.7 h
6 | CNS(=O)(=O)Nc1nccc(Cc2c(CN(C)C)c3ccc(OC(=O)N(C)C)cc3oc2=O)c1F [Compound 124] |  |  | 100.3% | Higher | 101.5% |  | 105.4% |  | 49.2% | 65.5% | >2 h | 5.12 | 3.51 10^−6 cm/s | 18.0 10^−6 cm/s | 94.15 h | >2 h | 2.87 L/h/kg | 47.9 mL/min/kg | 1.95 h
